Source: PubChem BioAssay (NCI)
Several values for one entry are separate records, joined by “and”; a condition that tells them apart may be missing. Equal values may be shown once.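 Results reflect a 48-hour exposure of cells in 96-well plates to compound at five concentrations. GI50: concentration for 50% inhibition of growth. TGI: concentration producing complete growth inhibition.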

How the values were obtained:
Assay in all cases: NCI anticancer screen, dose series, 48 h
[1] = tested on: ACHN renal
[2] = tested on: DU-145 prostate
[3] = tested on: HCT-116 colon
[4] = tested on: LOX IMVI melanoma
[5] = tested on: OVCAR-3 ovarian
[6] = tested on: SF-268 CNS
[7] = tested on: SR leukemia
[8] = tested on: SW-620 colon
[9] = tested on: UACC-62 melanoma
[10] = tested on: UO-31 renal

`CCc1ccc([OH2+])c(C(=O)[O-])c1.CCc1ccc([OH2+])c(C(=O)[O-])c1.CCc1ccc([OH2+])c(C(=O)[O-])c1.CCc1ccc([OH2+])c(C(=O)[O-])c1.[Cu+2].[Cu+2]` was tested, and the GI50 [1] was over 100 µM, the TGI [1] was over 100 µM and the GI50 [2] was 70.1 µM. It also gave a TGI [2] of over 100 µM, a GI50 [3] of over 100 µM and a TGI [3] of over 100 µM. The GI50 [4] was over 100 µM, the TGI [4] was over 100 µM and the GI50 [5] was 36.5 µM. The TGI [5] was over 100 µM, the GI50 [6] was over 100 µM and the TGI [6] was over 100 µM. For the same molecule, the GI50 [7] was 24.5 µM, the TGI [7] was over 100 µM and the GI50 [8] was over 100 µM. The TGI [8] was over 100 µM, the GI50 [9] was 70.5 µM and the TGI [9] was over 100 µM. The GI50 [10] was over 100 µM and the TGI [10] was over 100 µM.

Work on `COc1cc(C(=O)/C=C/c2c[nH]c3ccccc23)cc(OC)c1OC` yielded a GI50 [1] of 0.0509 µM, a TGI [1] of 16.7 µM and a GI50 [2] of 0.0296 µM. For the same molecule, the TGI [2] was 30 µM, the GI50 [3] was under 0.0175 µM and the TGI [3] was 16.9 µM. For the same molecule, the GI50 [4] was 0.0508 µM, the TGI [4] was 16.1 µM and the GI50 [5] was under 0.012 µM. For the same molecule, the TGI [5] was 0.0488 µM, the GI50 [6] was 0.0735 µM and the TGI [6] was 26.3 µM. It also gave a GI50 [7] of under 0.01 µM, a TGI [7] of 13.8 µM and a GI50 [8] of under 0.0123 µM. It also gave a TGI [8] of over 100 µM, a GI50 [9] of under 0.01 µM and a TGI [9] of 15.7 µM. For the same molecule, the GI50 [10] was 0.0396 µM and the TGI [10] was 11.4 µM.

In the case of `NS(=O)(=O)c1cccc(Nc2cc(-c3ccc(F)cc3)[nH]n2)c1`, the GI50 [1] was 13.2 µM, the TGI [1] was over 25 µM and the GI50 [2] was 16.2 µM. For the same molecule, the TGI [2] was over 25 µM, the GI50 [3] was 11.9 µM and the TGI [3] was over 25 µM. For the same molecule, the GI50 [4] was 20.7 µM, the TGI [4] was over 25 µM and the GI50 [5] was 19.5 µM. For the same molecule, the TGI [5] was over 25 µM, the GI50 [6] was 18.6 µM and the TGI [6] was over 25 µM. For the same molecule, the GI50 [7] was 12.5 µM, the TGI [7] was over 25 µM and the GI50 [8] was over 23.2 µM. For the same molecule, the TGI [8] was over 25 µM, the GI50 [9] was over 21.1 µM and the TGI [9] was over 25 µM. For the same molecule, the GI50 [10] was 14.6 µM and the TGI [10] was over 25 µM.

With `COc1cc2c(cc1O)CCN[C@@]21CS[C@H]2c3c(OC(C)=O)c(C)c4c(c3C(COC1=O)N1C2C2NC(Cc3cc(C)c(OC)c(O)c32)[C@@H]1O)OCO4` (some centres not stated) the TGI [1] was 12.9 µM and 2e-06 µg/mL and 0.0045 µg/mL, the TGI [2] was 11 µM and the GI50 [3] was 4.5 ng/mL. The TGI [3] was 11.9 µM and 4.86 µg/mL, the GI50 [4] was 4.5 ng/mL and the TGI [4] was 1970 ng/mL. It also gave a GI50 [5] of 0.000341 ng/mL, a TGI [5] of 0.00531 ng/mL and a GI50 [6] of 4.5 ng/mL. The TGI [6] was < 10 nM and 4.8e-07 µg/mL and 0.0045 µg/mL, the GI50 [7] was 4.5 ng/mL and the GI50 [8] was 4.5 ng/mL. For the same molecule, the TGI [8] was 7.33 µM and 4.98 µg/mL, the GI50 [9] was 4.5 ng/mL and the TGI [9] was 4.5 ng/mL. For the same molecule, the GI50 [10] was 10.8 ng/mL and the TGI [10] was 21.3 nM and 0.255 µg/mL.

With `O=C(NOCCO)c1ccc2cncn2c1Nc1ccc(I)cc1F` the GI50 [1] was 0.3 µM, the TGI [1] was over 100 µM and the GI50 [2] was > 10 µM and 19.9 µM. The TGI [2] was over 100 µM, the GI50 [3] was 0.0101 µM and < 0.01 µM and the TGI [3] was > 10 µM and 20.6 µM. The GI50 [4] was 0.0493 µM and 0.0635 µM, the TGI [4] was > 10 µM and 47.1 µM and the GI50 [5] was > 10 µM and 32.7 µM. The TGI [5] was over 100 µM, the GI50 [6] was > 10 µM and 22 µM and the TGI [6] was over 100 µM. For the same molecule, the GI50 [7] was > 10 µM and 19.1 µM, the TGI [7] was over 100 µM and the GI50 [8] was 0.00386 µM and < 0.01 µM. For the same molecule, the TGI [8] was over 100 µM, the GI50 [9] was 0.00255 µM and < 0.01 µM and the TGI [9] was 0.0343 µM and 0.0433 µM. The GI50 [10] was 0.0596 µM and 0.0455 µM and the TGI [10] was over 100 µM.

For `OC[C@H]1C[C@](O)(c2ccccc2Cl)[C@@H](c2ccccc2Cl)O1`, the GI50 [1] was 27.4 µM, the TGI [1] was 91.2 µM and the GI50 [2] was 27.1 µM. For the same molecule, the TGI [2] was 74.3 µM, the GI50 [3] was 25.7 µM and the TGI [3] was 68.6 µM. The GI50 [4] was 16.9 µM, the TGI [4] was 34.3 µM and the GI50 [5] was 19.5 µM. For the same molecule, the TGI [5] was 47.5 µM, the GI50 [6] was 24.2 µM and the TGI [6] was over 100 µM. The GI50 [7] was 16.9 µM, the TGI [7] was 41.3 µM and the GI50 [8] was 30.1 µM. It also gave a TGI [8] of over 100 µM, a GI50 [9] of 16.5 µM and a TGI [9] of 33.6 µM. For the same molecule, the GI50 [10] was 23 µM and the TGI [10] was 57.4 µM.

With `CC/C(=C/c1ccc(OC)cc1)[N+](=O)[O-]` the GI50 [1] was 1.71 µM, the TGI [1] was 3.21 µM and the GI50 [2] was 2.17 µM. The TGI [2] was 5.07 µM, the GI50 [3] was 1.61 µM and the TGI [3] was 3.1 µM. The GI50 [4] was 1.47 µM, the TGI [4] was 2.98 µM and the GI50 [5] was 1.86 µM. It also gave a TGI [5] of 3.35 µM, a GI50 [6] of 3.01 µM and a TGI [6] of 10.4 µM. The GI50 [7] was 2.31 µM, the TGI [7] was 7.65 µM and the GI50 [8] was 1.93 µM. The TGI [8] was 3.85 µM, the GI50 [9] was 2.04 µM and the TGI [9] was 4.67 µM. The GI50 [10] was 1.42 µM and the TGI [10] was 3.04 µM.

Work on `Cc1ccc(C)c(N2CCN(c3ccncc3N)CC2)c1` yielded a GI50 [1] of 11.9 µM, a TGI [1] of over 100 µM and a GI50 [2] of 17.9 µM. It also gave a TGI [2] of 64.8 µM, a GI50 [3] of 11.9 µM and a TGI [3] of over 100 µM. It also gave a GI50 [4] of 20.6 µM, a TGI [4] of 61.1 µM and a GI50 [5] of 12.2 µM. The TGI [5] was 58.8 µM, the GI50 [6] was 24.9 µM and the TGI [6] was over 100 µM. For the same molecule, the GI50 [7] was 15.6 µM, the TGI [7] was 52.6 µM and the GI50 [8] was 5.13 µM. It also gave a TGI [8] of 24.6 µM, a GI50 [9] of 13.9 µM and a TGI [9] of 30.8 µM. For the same molecule, the GI50 [10] was 17.2 µM and the TGI [10] was 96.3 µM.

With `COc1cccc(/C=C\C(=O)c2ccccc2)c1` the GI50 [1] was 7.34 µM, the TGI [1] was 23.4 µM and the GI50 [2] was 4.73 µM. For the same molecule, the TGI [2] was 20.5 µM, the GI50 [3] was 2.66 µM and the TGI [3] was 8.27 µM. The GI50 [4] was 2.42 µM, the TGI [4] was 7.38 µM and the GI50 [5] was 3.04 µM. For the same molecule, the TGI [5] was 13.4 µM, the GI50 [6] was 5.96 µM and the TGI [6] was 28.9 µM. The GI50 [7] was 8.89 µM, the TGI [7] was over 100 µM and the GI50 [8] was 2.7 µM. It also gave a TGI [8] of 7.31 µM, a GI50 [9] of 13.3 µM and a TGI [9] of 29 µM. It also gave a GI50 [10] of 2.18 µM and a TGI [10] of 5.96 µM.
